According to PubChem BioAssay (NCI):
Where “and” joins values, the source holds several entries; their conditions need not be identical. Identical values can stand only once.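 All cell lines were grown in 96-well plates and treated with compound for 48 hours. The concentration for 50% growth inhibition is given as GI50. TGI is the concentration that stops growth completely.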

Columns and labels:
Test in all cases: NCI-60 cell line screen, 48 h
[1] = system: MALME-3M melanoma
[2] = system: A549 NSCLC
[3] = system: CCRF-CEM leukemia
[4] = system: UO-31 renal
[5] = system: SF-268 CNS
[6] = system: HOP-62 NSCLC
[7] = system: HCT-116 colon
[8] = system: UACC-62 melanoma
[9] = system: NCI-H460 lung
[10] = system: OVCAR-3 ovarian
[11] = system: NCI-H226 lung
[12] = system: SN12C renal
[13] = system: MOLT-4 leukemia
[14] = system: SNB-19 CNS
[15] = system: MDA-MB-435
[16] = system: RXF 393 renal
[17] = system: U251 CNS
[18] = system: PC-3 prostate
[19] = system: NCI-H522 lung
[20] = system: ACHN renal
[21] = system: SK-MEL-28 melanoma
[22] = system: LOX IMVI melanoma
[23] = system: SW-620 colon
[24] = system: A498 renal
[25] = system: DU-145 prostate
[26] = system: HCC-2998 colon
[27] = system: HCT-15 colon
[28] = system: SNB-75 CNS
[29] = system: SF-539 CNS
[30] = system: SF-295 CNS
[31] = system: UACC-257 melanoma
[32] = system: MCF7 breast
[33] = system: OVCAR-5 ovarian
[34] = system: T-47D breast
[35] = system: KM12 colon
[36] = system: OVCAR-4 ovarian
[37] = system: BT-549 breast
[38] = system: COLO 205 colon
[39] = system: SK-MEL-5 melanoma
[40] = system: HS 578T breast
[41] = system: HL-60(TB) leukemia
[42] = system: TK-10 renal
[43] = system: RPMI-8226 leukemia
[44] = system: HOP-92 NSCLC
[45] = system: M14 melanoma
[46] = system: NCI/ADR-RES ovarian
[47] = system: MDA-MB-231 breast
[48] = system: SR leukemia
[49] = system: CAKI-1 renal
[50] = system: 786-0 renal
[51] = system: SK-MEL-2 melanoma
[52] = system: K-562 leukemia
[53] = system: IGROV1 ovarian
[54] = system: OVCAR-8 ovarian
[55] = system: HT29 colon
[56] = system: EKVX NSCLC
[57] = system: SK-OV-3 ovarian
[58] = system: NCI-H23 lung

For `CC(C)(C)c1cc(NC(=O)Cc2ccc(-c3cnc4cc(-c5cnn(CCN6CCOCC6)c5)ccc4n3)cc2)no1`, the GI50 [1] was 187 nM and 278 nM and 50.5 nM, the TGI [1] was 11300 nM and 2820 nM and the GI50 [2] was 335 nM and 506 nM and 108 nM. For the same molecule, the TGI [2] was 50000 nM and > 100000 nM and > 3000 nM, the GI50 [3] was 163 nM and 388 nM and 107 nM and the TGI [3] was 22800 nM and > 100000 nM and > 3000 nM. The GI50 [4] was 135 nM and 88.3 nM, the GI50 [5] was 413 nM and 468 nM and 78.1 nM and the TGI [5] was 50000 nM and > 100000 nM and > 3000 nM. For the same molecule, the TGI [6] was 50000 nM and > 100000 nM and > 3000 nM, the GI50 [7] was 226 nM and 417 nM and 70.5 nM and the TGI [7] was 50000 nM and > 100000 nM and > 3000 nM. The GI50 [8] was 260 nM and 364 nM and 55.2 nM, the TGI [8] was 50000 nM and > 100000 nM and > 3000 nM and the GI50 [9] was 181 nM and 320 nM and 45.6 nM. For the same molecule, the TGI [9] was 50000 nM and > 100000 nM and > 3000 nM, the GI50 [10] was 482 nM and 675 nM and 105 nM and the TGI [10] was 50000 nM and > 100000 nM and > 3000 nM. For the same molecule, the GI50 [11] was 223 nM and 533 nM and 78.3 nM, the TGI [11] was 50000 nM and > 100000 nM and > 3000 nM and the GI50 [12] was 243 nM and 348 nM and 64.5 nM. For the same molecule, the TGI [12] was 50000 nM and > 100000 nM and > 3000 nM, the GI50 [13] was 260 nM and 429 nM and 115 nM and the TGI [13] was 50000 nM and > 100000 nM and > 3000 nM. For the same molecule, the GI50 [14] was 2470 nM and 2260 nM and 279 nM, the TGI [14] was 50000 nM and > 100000 nM and > 3000 nM and the GI50 [15] was 356 nM and 452 nM and 98.9 nM. The TGI [15] was 50000 nM and > 100000 nM and > 3000 nM, the GI50 [16] was 179 nM and 274 nM and 39.5 nM and the TGI [16] was 1930 nM and 1450 nM. The GI50 [17] was 337 nM and 456 nM and 96.4 nM, the TGI [17] was 50000 nM and > 100000 nM and > 3000 nM and the GI50 [18] was 481 nM and 1020 nM and 135 nM. The TGI [18] was 50000 nM and > 100000 nM and > 3000 nM, the GI50 [19] was 298 nM and 465 nM and 96.2 nM and the TGI [19] was 50000 nM and > 100000 nM and > 3000 nM. The GI50 [20] was 151 nM and 302 nM and 39.4 nM, the TGI [20] was 50000 nM and > 100000 nM and > 3000 nM and the GI50 [21] was 885 nM and 826 nM and 139 nM. The TGI [21] was 50000 nM and > 100000 nM and > 3000 nM, the GI50 [22] was 248 nM and 416 nM and 82.1 nM and the TGI [22] was 50000 nM and > 100000 nM and > 3000 nM. The GI50 [23] was 220 nM and 414 nM and 87.8 nM, the TGI [23] was 9200 nM and 67100 nM and > 1250 nM and the GI50 [24] was 66.3 nM and 15.2 nM. The TGI [24] was 425 nM and 79.1 nM, the GI50 [25] was 432 nM and 494 nM and 75.7 nM and the TGI [25] was 50000 nM and > 100000 nM and > 3000 nM. The TGI [26] was 50000 nM and > 100000 nM and > 3000 nM, the GI50 [27] was 166 nM and 342 nM and 51.7 nM and the TGI [27] was 50000 nM and > 100000 nM and > 3000 nM. For the same molecule, the TGI [28] was 4390 nM and 38400 nM and > 3000 nM, the GI50 [29] was 87.8 nM and 236 nM and 344 nM and the TGI [29] was 3680 nM and 3050 nM and > 3000 nM. The GI50 [30] was 436 nM and 461 nM and 83.9 nM, the TGI [30] was 50000 nM and > 100000 nM and > 3000 nM and the TGI [31] was 50000 nM and > 100000 nM and > 3000 nM. The GI50 [32] was 301 nM and 806 nM and 194 nM, the TGI [32] was 50000 nM and > 100000 nM and > 3000 nM and the TGI [33] was 50000 nM and > 100000 nM and > 3000 nM. For the same molecule, the GI50 [34] was 853 nM and 822 nM and 107 nM, the TGI [34] was 50000 nM and > 100000 nM and > 3000 nM and the TGI [35] was 50000 nM and > 100000 nM and > 3000 nM. The GI50 [36] was 158 nM and 363 nM and 43.9 nM, the TGI [36] was 50000 nM and 14400 nM and > 1160 nM and the TGI [37] was 39500 nM and > 100000 nM and > 3000 nM. For the same molecule, the GI50 [38] was 836 nM and 93.1 nM, the TGI [38] was 50000 nM and > 3000 nM and the GI50 [39] was 612 nM and 674 nM and 232 nM. For the same molecule, the TGI [39] was 50000 nM and 11300 nM and > 950 nM, the GI50 [40] was 132 nM and 235 nM and 37.7 nM and the TGI [40] was 1560 nM and 2880 nM and > 2800 nM. For the same molecule, the GI50 [41] was 225 nM and 546 nM and 158 nM, the TGI [41] was 50000 nM and > 100000 nM and > 3000 nM and the TGI [42] was 50000 nM and > 100000 nM and > 3000 nM. The GI50 [43] was 249 nM and 609 nM and 98.5 nM, the TGI [43] was 50000 nM and > 100000 nM and > 3000 nM and the GI50 [44] was 194 nM and 91.3 nM. For the same molecule, the TGI [44] was 2920 nM and > 3000 nM, the GI50 [45] was 202 nM and 370 nM and 41.9 nM and the TGI [45] was 50000 nM and > 100000 nM and > 3000 nM. The GI50 [46] was 1080 nM and 745 nM and 117 nM, the TGI [46] was 50000 nM and > 100000 nM and > 3000 nM and the GI50 [47] was 622 nM and 573 nM. For the same molecule, the TGI [47] was 50000 nM and > 100000 nM and > 2850 nM, the GI50 [48] was 197 nM and 336 nM and 93.8 nM and the TGI [48] was 50000 nM and > 100000 nM and > 3000 nM. The GI50 [49] was 123 nM and 219 nM and 25.3 nM, the TGI [49] was 50000 nM and > 100000 nM and > 3000 nM and the GI50 [50] was 297 nM and 764 nM and 92 nM. The TGI [50] was 50000 nM and > 100000 nM and > 3000 nM, the GI50 [51] was 347 nM and 420 nM and 56.9 nM and the TGI [51] was 50000 nM and > 100000 nM and > 2530 nM. For the same molecule, the GI50 [52] was 216 nM and 307 nM and 84.8 nM, the TGI [52] was 50000 nM and > 100000 nM and > 3000 nM and the GI50 [53] was 106 nM and 104 nM. For the same molecule, the TGI [53] was 650 nM and 1110 nM, the GI50 [54] was 481 nM and 507 nM and 121 nM and the TGI [54] was 50000 nM and > 100000 nM and > 3000 nM. For the same molecule, the GI50 [55] was 613 nM and 1060 nM and 116 nM, the TGI [55] was 50000 nM and > 100000 nM and > 3000 nM and the GI50 [56] was 829 nM and 459 nM and 144 nM. The TGI [56] was 50000 nM and > 100000 nM and > 3000 nM, the GI50 [57] was 369 nM and the TGI [57] was 2660 nM. The GI50 [58] was 627 nM and 1080 nM and 131 nM and the TGI [58] was 50000 nM and > 100000 nM and > 3000 nM.
